This note sets out measurements from patent publication US20130052173A1, “USE OF MENADIONE AND DERIVATIVES THEREOF FOR TREATING BIOMASSES” (priority 2010, published 2013).

What all share (type): cell-based
Test [1] concerns broad spectrum of microorganisms, including yeasts. Put plainly: Biocidal activity in a liquid biomass. The following applies: weight of menadione/total weight of the biomass and of the compound.
In another test the test system is Saccharomyces cerevisiae. Put plainly: Growth of Saccharomyces cerevisiae strains in liquid biomass containing menadione.
The subject of another test is Lactobacillus fermentum. Put plainly: Bioethanol fermentation of 33% corn flour dispersion with Saccharomyces cerevisiae contaminated with Lactobacillus fermentum. The following applies: for Ethanol / Glucose (residual, non-fermented) / Lactic acid: 72 hours at 32° C., Sc + Lf inoculum, Virg 2 ppm, MSB 20 ppm. As to the method: The capacity of menadione sodium bisulfite to contrast the negative effect of bacterial contamination on the production of bioethanol is tested by using a 33% aqueous dispersion of corn flour, which is a typical substrate used in the bioethanol industry.
Using this dispersion, four parts of 40 ml each are prepared and are placed in four separate flasks (procedure described by Bischoff K. M. et al. in Biotechnology and Bioengineering 2009, 103, 117-122).
Flask 1 (witness) receives the addition of 0.5 ml of inoculum (Sc) of Saccharomyces cerevisiae (1×10^7 ufc/ml). Flask 2 receives the addition of 0.5 ml of inoculum (Sc) of Saccharomyces and 0.5 ml of inoculum (Lf) of Lactobacillus fermentum (1×10^8 ufc/ml); flask 3 receives the addition of 0.5 ml of inoculum (Sc) of Saccharomyces, 0.5 ml of inoculum (Lf) of Lactobacillus fermentum and 0.5 ml of a solution of virginiamycin with such a titer as to have, in the flask, a concentration of antibiotic equal to 2 mg/l. Flask 4 receives the addition of 0.5 ml of inoculum (Sc) of Saccharomyces, 0.5 ml of inoculum (Lf) of Lactobacillus fermentum and 0.5 ml of a solution of menadione sodium bisulfite (1600 mg/l ) with such a titer as to have in the flask a concentration of MSB equal to 20 ppm by weight.
Then the four flasks are kept under bland agitation and at the temperature of 32° C. for 72 hours. At the end of the incubation period, the four parts are analyzed for their content of ethanol, glucose and lactic acid.

In a further test the test system is Lactobacillus plantarum. Put plainly: Pasteurized 20% molasses solution inoculated with Lactobacillus plantarum. The following applies: 48 hours at 25° C., MSB 50 ppm, MSB-C 100 ppm; for Lactic acid / Ufc/l (bacterial load): virginiamycin 2 mg/l. Here is the method: A 20% solution of molasses is pasteurized at 65° C. for 30 minutes. After cooling, five 50-ml parts are formed: of these, one is kept as a control and the remaining four each receive the addition of 1 ml of inoculum (Lp) of Lactobacillus plantarum (1×10^5 ufc/ml). The third part then receives the addition of 2 mg/l of virginiamycin, the fourth part receives the addition of 50 ppm of menadione sodium bisulfite, while the fifth part receives the addition of 100 ppm of a mixture of menadione sodium bisulfite and sodium bisulfite known as MSB-C (composition of mixture: 65% MSB and 35% sodium bisulfite).

Another test has as its system Oenococcus oeni. Put plainly: Pasteurized 30% glycerol solution inoculated with Oenococcus oeni. The following applies: 48 hours at 25° C.; Penicillin 10 mg/l, emulsion A 20 mg/l, emulsion B 150 mg/l. Here is the method:
A 30% solution of glycerol is pasteurized at 65° C. for 30 minutes. After cooling, four 50-ml parts are formed, each of which receives the addition of 1 ml of inoculum (00) of Oenococcus oeni, so as to have a bacterial load of 1×10^5 ufc/l.
The first part is kept as a control; the second part receives the addition of 10 mg/l of Penicillin (Pen); the third part receives the addition of 20 mg/l of an emulsion A of menadione (composition: 50% menadione, 50% ethanol); the fourth part receives the addition of 150 mg/l of an emulsion B of menadione (composition: menadione 10%, ricinoleate 90%).

As to `CC1=CC(=O)c2ccccc2C1=O` [menadione, 2-methylnaphthalene-1,4-dione], the “Concentration from which biocidal activity is exhibited” value in test [1] was “at least 500 ppm”. In addition, the “Menadione concentration that allows growth of all the tested strains” value in the test with Saccharomyces cerevisiae (liquid biomass) was “below 400 ppm”. The “Growth response of Saccharomyces cerevisiae” value with Saccharomyces cerevisiae (menadione concentration between 400 and 500 ppm) was “varies depending on the tested strains”.
In the case of virginiamycin [reference compound], in the test with Lactobacillus fermentum, the Ethanol worked out at 108.2 g/L; the “Glucose (residual, non-fermented)” value is 6.4 g/L; the Lactic acid is 0.4 g/L. In the test with Lactobacillus plantarum, the Lactic acid came out at 0.15 g/L and the “Ufc/l (bacterial load)” value is <1 × 10^2 Ufc/l.
Penicillin: the “Ufc/l (bacterial load)” value in the test with Oenococcus oeni is <1 × 10^2 Ufc/l.
Regarding `CC1(S(=O)(=O)[O-])CC(=O)c2ccccc2C1=O.[Na+]` (centres unmarked) [MSB, menadione sodium bisulfite], in the test on Lactobacillus fermentum, the Ethanol was determined as 111.3 g/L; the “Glucose (residual, non-fermented)” value stood at 6.2 g/L; the Lactic acid was determined as 0.5 g/L. The “Effect on the bacterial inoculum” value with Lactobacillus fermentum (flask 4, MSB 20 ppm) is “able to inhibit the bacterial inoculum”. For the same compound, in the test with Lactobacillus fermentum (flask 4, MSB 20 ppm, Saccharomyces cerevisiae), the “Effect on growth of the yeast” value is listed as “has not harmed the growth of the yeast”. Besides, in the test with Lactobacillus plantarum, the Lactic acid came out at 0.40 g/L, the “Ufc/l (bacterial load)” value is reported as <1 × 10^3 Ufc/l and the “Effect on the bacterial inoculum” value is on record as “inhibiting completely the bacterial inoculum”.
